According to US12421225B2, “Heteroaromatic amide derivative and medicament containing the same” (KAKEN PHARMACEUTICAL CO., LTD., priority 2018, dated 2025):

How the values were obtained:
human Nav1.5 = human Nav1.5 (Homo sapiens (Human), UniProt Q14524); test: Human Nav1.5 inhibitory activity evaluation (automated patch clamp QPatch16X, HEK293 cells stably expressing human Nav1.5); assay type: cell-based
Procedure: Test Example 2: Human Nav1.5 Inhibitory Activity Evaluation
A cell line in which human Nav1.5 was stably expressed in HEK293 cells was used. DMEM supplemeted with 15% fetal bovine serum, 500 μg/ml geneticin, 100 units/ml penicillin, 100 μg/ml streptomycin, 20 mM HEPES was used as culture medium under the conditions of 37° C. and 5% CO2 in T175 flasks to carry out culturing. When 60-80% confluence was reached, a cell suspension of about 0.5-5.0×10^6 cells/mL was prepared. The amount of current through human Nav1.5 was recorded using a fully automatic patch clamp device QPatch16X at room temperature. As the extracellular solution, 145 mM NaCl, 4 mM KCl, 1 mM MgCl2, 2 mM CaCl2, 10 mM Glucose, and 10 mM HEPES at pH 7.4 was used. As the intracellular solution, 135 mM CsF, ⅕ mM EGTA/CsOH, 10 mM HEPES, and 10 mM NaCl at pH 7.3 was used. The test compounds were dissolved in DMSO and diluted with the extracellular solution to attend the DMSO concentration of 0.1% at the time of assay.
The current response was obtained at a sampling frequency of 25 kHz, and noise was removed with a 3 kHz low-pass filter. The holding potential was −80 mV. Correction of the leakage current was carried out by applying a step pulse of −100 mV before the test pulse. In order to investigate human Nav1.5 inhibitory effect of the test compound, test pulses imitating the action potential of cardiomyocytes were continuously given 20 times. The test pulses were given before and after the test compound addition.
The inhibitory activity of the test compound was determined based on the amount of inward current generated by the 20th depolarization pulse, and the 50% inhibitory concentration (IC50) was calculated from the concentration-response curve.

human Nav1.7 = human Nav1.7 (Homo sapiens (Human), UniProt Q15858); test: Human Nav1.7 inhibitory activity evaluation (automated patch clamp QPatch16X, HEK293A cells stably expressing human Nav1.7 and human Navβ1); assay type: cell-based
Sequence of human Nav1.7 (Q15858 whole entry): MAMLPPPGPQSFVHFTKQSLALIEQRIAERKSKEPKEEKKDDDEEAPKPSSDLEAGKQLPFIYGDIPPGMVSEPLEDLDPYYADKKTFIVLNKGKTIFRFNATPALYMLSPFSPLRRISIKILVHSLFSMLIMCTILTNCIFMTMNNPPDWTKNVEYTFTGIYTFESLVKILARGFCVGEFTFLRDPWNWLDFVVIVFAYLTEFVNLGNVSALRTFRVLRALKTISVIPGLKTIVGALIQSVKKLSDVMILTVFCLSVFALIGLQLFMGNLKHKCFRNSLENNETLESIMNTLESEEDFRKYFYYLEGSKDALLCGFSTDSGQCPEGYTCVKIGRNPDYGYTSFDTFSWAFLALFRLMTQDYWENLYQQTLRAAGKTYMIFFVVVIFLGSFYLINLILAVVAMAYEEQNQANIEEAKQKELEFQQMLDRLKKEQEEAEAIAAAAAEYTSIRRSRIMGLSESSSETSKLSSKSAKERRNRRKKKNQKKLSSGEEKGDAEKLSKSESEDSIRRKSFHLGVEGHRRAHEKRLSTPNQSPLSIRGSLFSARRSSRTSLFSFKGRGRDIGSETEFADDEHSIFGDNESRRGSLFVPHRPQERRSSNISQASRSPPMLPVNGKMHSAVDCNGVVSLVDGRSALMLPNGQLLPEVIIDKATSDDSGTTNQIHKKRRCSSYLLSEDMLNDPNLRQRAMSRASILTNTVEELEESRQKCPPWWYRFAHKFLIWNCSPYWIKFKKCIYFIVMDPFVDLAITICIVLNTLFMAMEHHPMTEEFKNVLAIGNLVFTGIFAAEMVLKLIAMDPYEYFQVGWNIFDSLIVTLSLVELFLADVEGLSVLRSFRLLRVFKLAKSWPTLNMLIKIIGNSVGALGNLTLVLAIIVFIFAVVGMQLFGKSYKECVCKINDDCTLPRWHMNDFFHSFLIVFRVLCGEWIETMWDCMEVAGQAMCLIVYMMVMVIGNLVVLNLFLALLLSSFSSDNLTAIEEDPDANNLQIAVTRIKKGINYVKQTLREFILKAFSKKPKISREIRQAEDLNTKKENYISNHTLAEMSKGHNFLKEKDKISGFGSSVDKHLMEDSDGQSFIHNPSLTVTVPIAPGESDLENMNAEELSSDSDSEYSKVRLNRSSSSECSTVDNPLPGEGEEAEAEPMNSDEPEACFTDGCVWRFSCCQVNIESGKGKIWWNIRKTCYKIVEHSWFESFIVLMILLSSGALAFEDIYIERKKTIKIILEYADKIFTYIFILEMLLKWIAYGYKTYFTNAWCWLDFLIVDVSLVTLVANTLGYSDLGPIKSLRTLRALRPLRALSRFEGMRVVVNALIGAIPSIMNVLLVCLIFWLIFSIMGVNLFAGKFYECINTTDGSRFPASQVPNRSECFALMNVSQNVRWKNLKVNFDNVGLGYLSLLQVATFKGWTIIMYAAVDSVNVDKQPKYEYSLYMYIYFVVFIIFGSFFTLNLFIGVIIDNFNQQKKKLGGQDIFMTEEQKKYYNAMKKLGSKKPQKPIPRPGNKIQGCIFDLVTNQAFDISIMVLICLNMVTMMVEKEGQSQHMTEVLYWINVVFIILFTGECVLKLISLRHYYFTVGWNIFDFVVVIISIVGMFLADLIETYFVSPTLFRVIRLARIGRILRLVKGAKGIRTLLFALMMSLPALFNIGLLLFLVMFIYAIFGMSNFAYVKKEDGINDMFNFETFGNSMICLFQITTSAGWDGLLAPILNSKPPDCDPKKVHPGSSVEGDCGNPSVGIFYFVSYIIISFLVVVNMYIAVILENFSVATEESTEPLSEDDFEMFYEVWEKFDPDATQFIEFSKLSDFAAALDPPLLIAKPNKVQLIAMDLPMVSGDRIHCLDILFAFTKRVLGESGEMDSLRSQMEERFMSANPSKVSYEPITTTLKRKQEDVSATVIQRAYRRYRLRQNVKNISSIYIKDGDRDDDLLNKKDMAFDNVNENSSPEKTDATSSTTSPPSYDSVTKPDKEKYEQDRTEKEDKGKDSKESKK
Sequence of human Nav1.7 (Q07699 19-218 partner): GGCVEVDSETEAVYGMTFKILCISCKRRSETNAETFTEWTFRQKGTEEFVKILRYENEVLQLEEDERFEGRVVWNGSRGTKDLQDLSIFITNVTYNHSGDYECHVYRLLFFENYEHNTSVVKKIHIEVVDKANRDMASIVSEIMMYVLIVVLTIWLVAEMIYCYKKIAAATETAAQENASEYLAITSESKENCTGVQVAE
Outline: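 IC50 calculated from the concentration-response of inward current evoked by the second −10 mV, 50 ms depolarisation, which follows a 15 s conditioning step at roughly 30-40% inactivation and a 100 ms −120 mV interval. Cells: HEK293A expressing human Nav1.7/Navβ1, automated patch clamp, room temperature, 0.1% DMSO final.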

[1] = HEK293 cells stably expressing human Nav1.5, automated patch clamp QPatch16X
[2] = HEK293A cells stably expressing human Nav1.7 and human Navβ1, automated patch clamp QPatch16X
[3] = human Nav1.5, automated patch clamp
[4] = human Nav1.7, automated patch clamp

Sequence of human Nav1.5 (Q14524 whole entry): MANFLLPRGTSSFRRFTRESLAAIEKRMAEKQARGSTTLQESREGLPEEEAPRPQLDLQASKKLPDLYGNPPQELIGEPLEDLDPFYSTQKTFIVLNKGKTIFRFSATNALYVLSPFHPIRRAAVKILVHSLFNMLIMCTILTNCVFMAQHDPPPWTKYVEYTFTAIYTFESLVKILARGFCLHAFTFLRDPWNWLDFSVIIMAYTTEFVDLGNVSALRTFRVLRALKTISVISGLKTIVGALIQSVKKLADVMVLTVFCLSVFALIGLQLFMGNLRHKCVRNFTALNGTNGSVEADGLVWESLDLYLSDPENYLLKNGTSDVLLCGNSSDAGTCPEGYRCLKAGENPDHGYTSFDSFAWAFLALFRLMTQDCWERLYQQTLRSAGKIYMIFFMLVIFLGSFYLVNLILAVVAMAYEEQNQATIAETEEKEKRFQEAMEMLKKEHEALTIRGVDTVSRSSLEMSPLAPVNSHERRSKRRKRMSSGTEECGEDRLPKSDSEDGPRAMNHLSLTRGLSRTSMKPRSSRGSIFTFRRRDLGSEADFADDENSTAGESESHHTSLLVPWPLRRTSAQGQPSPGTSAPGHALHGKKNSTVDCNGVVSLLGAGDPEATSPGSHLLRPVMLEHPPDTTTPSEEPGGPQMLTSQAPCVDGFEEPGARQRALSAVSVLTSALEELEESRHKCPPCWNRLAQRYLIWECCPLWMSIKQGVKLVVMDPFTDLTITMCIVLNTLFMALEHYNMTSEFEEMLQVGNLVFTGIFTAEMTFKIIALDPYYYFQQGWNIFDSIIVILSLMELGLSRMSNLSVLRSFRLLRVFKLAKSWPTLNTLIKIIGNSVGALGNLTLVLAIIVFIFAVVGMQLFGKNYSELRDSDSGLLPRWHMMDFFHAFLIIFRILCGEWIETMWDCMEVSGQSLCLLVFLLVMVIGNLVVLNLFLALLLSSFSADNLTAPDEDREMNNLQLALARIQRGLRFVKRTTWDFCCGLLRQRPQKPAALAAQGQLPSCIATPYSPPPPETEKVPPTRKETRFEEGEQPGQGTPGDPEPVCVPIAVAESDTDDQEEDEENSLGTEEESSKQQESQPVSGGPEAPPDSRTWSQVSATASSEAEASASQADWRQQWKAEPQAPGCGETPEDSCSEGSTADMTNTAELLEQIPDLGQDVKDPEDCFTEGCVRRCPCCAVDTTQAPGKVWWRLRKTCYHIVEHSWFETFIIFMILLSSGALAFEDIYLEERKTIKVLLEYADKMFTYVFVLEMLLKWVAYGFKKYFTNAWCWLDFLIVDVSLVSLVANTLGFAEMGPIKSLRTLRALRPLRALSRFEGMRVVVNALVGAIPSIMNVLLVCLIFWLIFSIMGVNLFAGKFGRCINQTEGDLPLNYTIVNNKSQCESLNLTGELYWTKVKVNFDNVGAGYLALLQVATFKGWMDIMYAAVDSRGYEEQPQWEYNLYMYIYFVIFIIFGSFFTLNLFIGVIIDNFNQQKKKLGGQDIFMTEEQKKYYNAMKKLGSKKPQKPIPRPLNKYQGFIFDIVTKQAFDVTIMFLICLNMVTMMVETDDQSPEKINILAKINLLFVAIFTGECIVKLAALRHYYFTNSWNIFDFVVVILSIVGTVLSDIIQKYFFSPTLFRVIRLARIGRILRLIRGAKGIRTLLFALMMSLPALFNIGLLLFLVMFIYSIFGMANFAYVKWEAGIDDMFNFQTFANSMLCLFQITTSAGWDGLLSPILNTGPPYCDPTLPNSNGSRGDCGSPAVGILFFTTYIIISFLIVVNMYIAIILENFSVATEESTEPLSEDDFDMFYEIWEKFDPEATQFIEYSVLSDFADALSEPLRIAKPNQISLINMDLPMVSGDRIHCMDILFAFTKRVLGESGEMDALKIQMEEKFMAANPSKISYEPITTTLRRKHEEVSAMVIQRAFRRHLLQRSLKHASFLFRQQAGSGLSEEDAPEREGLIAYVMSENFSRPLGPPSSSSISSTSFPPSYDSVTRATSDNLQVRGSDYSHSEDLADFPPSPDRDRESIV

Row | SMILES | IC50 (human Nav1.5; [1]) | IC50 (human Nav1.7; [2]) | IC50 (human Nav1.5; [3]) | IC50 (human Nav1.7; [4])
1 | N#Cc1ccc2c(c1)C[C@@H](NC(=O)c1cc3n(n1)CCC(COCC1CC1)O3)CO2 (mixture of isomers) [Example 102, N—((R)-6-cyanochroman-3-yl)-5-((cyclopropylmethoxy)methyl)-6,7-dihydro-5H-pyrazolo[5,1-b][1,3]oxazine-2-carboxamide] | ≥ 3 µM | < 1 µM | – | –
2 | N#Cc1ccc2c(c1)C[C@@H](NC(=O)c1cc3n(n1)CCC(COCC(F)(F)F)O3)CO2 (mixture of isomers) [Example 114, N—((R)-6-cyanochroman-3-yl)-5-((2,2,2-trifluoroethoxy)methyl)-6,7-dihydro-5H-pyrazolo[5,1-b][1,3]oxazine-2-carboxamide] | ≥ 3 µM | < 10 µM | – | –
3 | O=C(N[C@H]1COc2ccc(COCC(F)(F)F)cc2C1)c1cc2n(n1)CCC(COCC(F)(F)F)O2 (mixture of isomers) [Example 128, 5-((2,2,2-trifluoroethoxy)methyl)-N—((R)-6-((2,2,2-trifluoroethoxy)methyl)chroman-3-yl)-6,7-dihydro-5H-pyrazolo[5,1-b][1,3]oxazine-2-carboxamide] | 1 to 3 µM | < 1 µM | – | –
4 | N#Cc1ccc2c(c1)C[C@@H](NC(=O)c1cc3n(n1)CCC(COC(F)(F)F)O3)CO2 (mixture of isomers) [Example 133, N—((R)-6-cyanochroman-3-yl)-5-((trifluoromethoxy)methyl)-6,7-dihydro-5H-pyrazolo[5,1-b][1,3]oxazine-2-carboxamide] | 1 to 3 µM | < 1 µM | – | –
5 | O=C(N[C@H]1COc2ccc(C(F)(F)F)cc2C1)c1cc2n(n1)CCC(C(F)F)O2 (mixture of isomers) [Example 160, 5-(difluoromethyl)-N—((R)-6-(trifluoromethyl)chroman-3-yl)-6,7-dihydro-5H-pyrazolo[5,1-b][1,3]oxazine-2-carboxamide] | – | – | ≥ 3 µM | < 1 µM
6 | COc1ncc(-c2ccc3c(c2)C[C@@H](NC(=O)c2cc4n(n2)CC(CCOCC2CC2)O4)CO3)cn1 (mixture of isomers) [Example 203, 2-(2-(cyclopropylmethoxy)ethyl)-N—((R)-6-(2-methoxypyrimidin-5-yl)chroman-3-yl)-2,3-dihydropyrazolo[5,1-b]oxazole-6-carboxamide] | – | – | ≥ 3 µM | < 1 µM
7 | N#Cc1ccc2c(c1)C[C@@H](NC(=O)c1cc3n(n1)CCC(COCC1(F)CC1)O3)CO2 (mixture of isomers) [Example 532] | – | – | ≥ 3 µM | < 10 µM
8 | O=C(N[C@H]1COc2ccc(C(F)F)cc2C1)c1cn2c(n1)CCC(C(F)(F)F)C2 (single isomer, unassigned) [7 (isomer A)] | 1 to 3 µM | < 1 µM | – | –
9 | O=C(N[C@H]1COc2ccc(C(F)F)cc2C1)c1cn2c(n1)CCC(C(F)(F)F)C2 (single isomer, unassigned) [7 (isomer B)] | ≥ 3 µM | < 1 µM | – | –
10 | O=C(NC1COc2cccc(Br)c2C1)c1cn2c(n1)CCC(C(F)(F)F)C2 (single isomer, unassigned) [9 (isomer A)] | ≥ 3 µM | < 10 µM | – | –
11 | O=C(NC1COc2cccc(Br)c2C1)c1cn2c(n1)CCC(C(F)(F)F)C2 (single isomer, unassigned) [9 (isomer B)] | ≥ 3 µM | < 1 µM | – | –
12 | O=C(N[C@H]1COc2ccc(Cl)cc2C1)c1cn2c(n1)CCC(OCC(F)(F)F)C2 (single isomer, unassigned) [39 (isomer A)] | 1 to 3 µM | < 10 µM | – | –
13 | O=C(N[C@H]1COc2ccc(Cl)cc2C1)c1cn2c(n1)CCC(OCC(F)(F)F)C2 (single isomer, unassigned) [39 (isomer B)] | ≥ 3 µM | < 10 µM | – | –
14 | CCCC1CCn2nc(C(=O)N[C@H]3COc4ccc(C#N)cc4C3)cc2O1 (single isomer, unassigned) [95 (isomer A)] | ≥ 3 µM | < 1 µM | – | –
15 | CCCOCC1CCn2nc(C(=O)N[C@H]3COc4ccc(C#N)cc4C3)cc2O1 (single isomer, unassigned) [101 (isomer B)] | ≥ 3 µM | < 10 µM | – | –
16 | N#Cc1ccc2c(c1)C[C@@H](NC(=O)c1cc3n(n1)CCC(COCC1CC1)O3)CO2 (single isomer, unassigned) [103 (isomer B)] | ≥ 3 µM | < 10 µM | – | –
17 | O=C(N[C@H]1COc2ccc(CC(F)F)cc2C1)c1cc2n(n1)CCC(COCC1CC1)O2 (single isomer, unassigned) [109 (isomer A)] | 1 to 3 µM | < 1 µM | – | –
18 | O=C(N[C@H]1COc2ccc(CC(F)F)cc2C1)c1cc2n(n1)CCC(COCC1CC1)O2 (single isomer, unassigned) [109 (isomer B)] | ≥ 3 µM | < 10 µM | – | –
19 | O=C(N[C@H]1COc2ccc(-c3ccccn3)cc2C1)c1cc2n(n1)CCC(COCC1CC1)O2 (single isomer, unassigned) [111 (isomer A)] | 1 to 3 µM | < 1 µM | – | –

Row | SMILES | IC50 (human Nav1.5; [1]) | IC50 (human Nav1.7; [2]) | IC50 (human Nav1.5; [3]) | IC50 (human Nav1.7; [4])
20 | CC1(COCC2CCn3nc(C(=O)N[C@H]4COc5ccc(C#N)cc5C4)cc3O2)CC1 (single isomer, unassigned) [113 (isomer A)] | 1 to 3 µM | < 1 µM | – | –
21 | CC1(COCC2CCn3nc(C(=O)N[C@H]4COc5ccc(C#N)cc5C4)cc3O2)CC1 (single isomer, unassigned) [113 (isomer B)] | < 1 µM | < 1 µM | – | –
22 | CCOCC1CCn2nc(C(=O)N[C@H]3COc4ccc(-c5ccccn5)cc4C3)cc2O1 (single isomer, unassigned) [124 (isomer A)] | ≥ 3 µM | < 1 µM | – | –
23 | CCOCC1CCn2nc(C(=O)N[C@H]3COc4ccc(-c5ccccn5)cc4C3)cc2O1 (single isomer, unassigned) [124 (isomer B)] | ≥ 3 µM | < 10 µM | – | –
24 | O=C(N[C@H]1COc2ccc(CC(F)F)cc2C1)c1cc2n(n1)CCC(COCC(F)(F)F)O2 (single isomer, unassigned) [127 (isomer A)] | ≥ 3 µM | < 1 µM | – | –
25 | O=C(N[C@H]1COc2ccc(COCC(F)(F)F)cc2C1)c1cc2n(n1)CCC(COCC(F)(F)F)O2 (single isomer, unassigned) [129 (isomer B)] | 1 to 3 µM | < 1 µM | – | –
26 | O=C(N[C@H]1COc2ccc(-c3ccccn3)cc2C1)c1cc2n(n1)CCC(COCC(F)(F)F)O2 (single isomer, unassigned) [131 (isomer A)] | 1 to 3 µM | < 1 µM | – | –
27 | O=C(N[C@H]1COc2ccc(-c3ccccn3)cc2C1)c1cc2n(n1)CCC(COCC(F)(F)F)O2 (single isomer, unassigned) [131 (isomer B)] | ≥ 3 µM | < 10 µM | – | –
28 | N#Cc1ccc2c(c1)C[C@@H](NC(=O)c1cc3n(n1)CCC(COC(F)(F)F)O3)CO2 (single isomer, unassigned) [134 (isomer B)] | ≥ 3 µM | < 10 µM | – | –
29 | O=C(N[C@H]1COc2ccc(CC(F)F)cc2C1)c1cc2n(n1)CCC(COC(F)(F)F)O2 (single isomer, unassigned) [136 (isomer A)] | < 1 µM | < 1 µM | – | –
30 | O=C(N[C@H]1COc2ccc(CC(F)F)cc2C1)c1cc2n(n1)CCC(COC(F)(F)F)O2 (single isomer, unassigned) [136 (isomer B)] | 1 to 3 µM | < 1 µM | – | –
31 | O=C(N[C@H]1COc2ccc(COCC(F)(F)F)cc2C1)c1cc2n(n1)CCC(COC(F)F)O2 (single isomer, unassigned) [140 (isomer A)] | – | – | ≥ 3 µM | < 1 µM
32 | O=C(N[C@H]1COc2ccc(COCC(F)(F)F)cc2C1)c1cc2n(n1)CCC(COC(F)F)O2 (single isomer, unassigned) [140 (isomer B)] | – | – | 1 to 3 µM | < 1 µM
33 | O=C(N[C@H]1COc2ccc(CCOC(F)F)cc2C1)c1cc2n(n1)CCC(COC(F)F)O2 (single isomer, unassigned) [142 (isomer A)] | – | – | 1 to 3 µM | < 1 µM
34 | O=C(N[C@H]1COc2ccc(CCOC(F)F)cc2C1)c1cc2n(n1)CCC(COC(F)F)O2 (single isomer, unassigned) [142 (isomer B)] | – | – | ≥ 3 µM | < 1 µM
35 | O=C(N[C@H]1COc2ccc(C(F)(F)F)cc2C1)c1cc2n(n1)CCC(OCC(F)(F)F)CO2 (single isomer, unassigned) [257 (isomer B)] | – | – | ≥ 3 µM | –
36 | O=C(N[C@H]1COc2ccc(COCC(F)(F)F)cc2C1)c1cc2n(n1)CC(CC1CCOCC1)O2 (single isomer, unassigned) [622 (isomer B)] | – | – | ≥ 3 µM | –
37 | O=C(N[C@H]1COc2ccc(Br)cc2C1)c1cc2n(n1)CC(C(F)(F)F)O2 (some centres unmarked) [Example 445] | – | – | ≥ 3 µM | –
